Assay results as given in the NIST ThermoML archive (doi:10.1016/j.jct.2012.07.022).

Experiment: wn = mass fraction of the nth substance listed
Details: 101 kPa, Liquid; for electrical conductivity: Alternating current cell with electrodes; for viscosity: Capillary tube (Ostwald / Ubbelohde) method; for mass density: Vibrating tube method

O=c1cc[nH]c(=O)[nH]1 [2,4(1H,3H)-pyrimidinedione] + CC(=O)[O-].CCn1cc[n+](C)c1
Details	electrical conductivity [S/m]	mass density [kg/m3]	viscosity [mPa·s]
298.15 K, w2 = 0	0.296	1097.6	128.5
298.15 K, w2 = 0.0486	0.221	1111	190.6
298.15 K, w2 = 0.1019	0.159	1125	294
298.15 K, w2 = 0.1471	0.11	1135.7	437.6
298.15 K, w2 = 0.2029	0.0807	1148.6	682.8
298.15 K, w2 = 0.2505	0.0585	1157.9	1010
298.15 K, w2 = 0.298	0.0388	1166.8	1589
303.15 K, w2 = 0	0.382	1094.5	95.23
303.15 K, w2 = 0.0486	0.293	1107.9	136.6
303.15 K, w2 = 0.1019	0.214	1122	204
303.15 K, w2 = 0.1471	0.156	1132.5	293.1
303.15 K, w2 = 0.2029	0.117	1145.2	441.4
303.15 K, w2 = 0.2505	0.0878	1154.6	630.8
303.15 K, w2 = 0.298	0.0602	1163.7	952.6
308.15 K, w2 = 0	0.48	1091.4	72.42
308.15 K, w2 = 0.0486	0.38	1104.9	100.9
308.15 K, w2 = 0.1019	0.288	1118.9	146.4
308.15 K, w2 = 0.1471	0.212	1129.3	204.2
308.15 K, w2 = 0.2029	0.163	1141.9	297.8
308.15 K, w2 = 0.2505	0.125	1151.2	413.1
308.15 K, w2 = 0.298	0.0892	1160.5	602.2
313.15 K, w2 = 0	0.594	1088.4	56.38
313.15 K, w2 = 0.0486	0.48	1101.8	76.6
313.15 K, w2 = 0.1019	0.372	1115.8	108.2
313.15 K, w2 = 0.1471	0.281	1126.2	147.1
313.15 K, w2 = 0.2029	0.221	1138.8	208.6
313.15 K, w2 = 0.2505	0.173	1148	281.8
313.15 K, w2 = 0.298	0.127	1157.1	398.2
318.15 K, w2 = 0	0.827	1085.3	44.79
318.15 K, w2 = 0.0486	0.592	1098.8	59.5
318.15 K, w2 = 0.1019	0.469	1112.8	82.2
318.15 K, w2 = 0.1471	0.362	1123.2	109.1
318.15 K, w2 = 0.2029	0.29	1135.7	150.9
318.15 K, w2 = 0.2505	0.233	1144.8	199.2
318.15 K, w2 = 0.298	0.176	1153.9	273.8
323.15 K, w2 = 0	0.986	1082.3	36.23
323.15 K, w2 = 0.0486	0.718	1095.8	47.16
323.15 K, w2 = 0.1019	0.579	1109.9	63.79
323.15 K, w2 = 0.1471	0.456	1120.2	82.98
323.15 K, w2 = 0.2029	0.371	1132.7	112.2
323.15 K, w2 = 0.2505	0.304	1141.7	145.2
323.15 K, w2 = 0.298	0.233	1150.8	194.8
328.15 K, w2 = 0	–	1079.3	29.78
328.15 K, w2 = 0.0486	–	1092.9	38.06
328.15 K, w2 = 0.1019	–	1106.9	50.53
328.15 K, w2 = 0.1471	–	1117.1	64.55
328.15 K, w2 = 0.2029	–	1129.6	85.56
328.15 K, w2 = 0.2505	–	1138.7	108.7
328.15 K, w2 = 0.298	–	1147.8	142.7
333.15 K, w2 = 0	–	1076.2	24.82
333.15 K, w2 = 0.0486	–	1089.9	31.2
333.15 K, w2 = 0.1019	–	1103.9	40.73
333.15 K, w2 = 0.1471	–	1114.1	51.22
333.15 K, w2 = 0.2029	–	1126.6	66.66
333.15 K, w2 = 0.2505	–	1135.7	83.31
333.15 K, w2 = 0.298	–	1144.7	107.3
338.15 K, w2 = 0	–	1073.3	20.95
338.15 K, w2 = 0.0486	–	1086.9	25.94
338.15 K, w2 = 0.1019	–	1100.9	33.34
338.15 K, w2 = 0.1471	–	1111.1	41.34
338.15 K, w2 = 0.2029	–	1123.6	52.92
338.15 K, w2 = 0.2505	–	1132.7	65.2
338.15 K, w2 = 0.298	–	1141.7	82.59
343.15 K, w2 = 0	–	1070.3	17.88
343.15 K, w2 = 0.0486	–	1083.9	21.84
343.15 K, w2 = 0.1019	–	1097.9	27.67
343.15 K, w2 = 0.1471	–	1108.1	33.87
343.15 K, w2 = 0.2029	–	1120.5	42.75
343.15 K, w2 = 0.2505	–	1129.6	51.97
343.15 K, w2 = 0.298	–	1138.7	64.84

Nc1[nH]cnc2ncnc1-2 [6-amino-1H-purine] + CC(=O)[O-].CCn1cc[n+](C)c1
Details	electrical conductivity [S/m]	mass density [kg/m3]	viscosity [mPa·s]
298.15 K, w2 = 0	0.296	1097.6	128.5
298.15 K, w2 = 0.0482	0.209	1111.1	197.7
298.15 K, w2 = 0.1008	0.143	1124.3	318
298.15 K, w2 = 0.1514	0.0996	1135	498.1
298.15 K, w2 = 0.2055	0.0672	1146.4	823.2
298.15 K, w2 = 0.2481	0.0471	1154.5	1235.7
303.15 K, w2 = 0	0.382	1094.5	95.23
303.15 K, w2 = 0.0482	0.278	1107.9	141
303.15 K, w2 = 0.1008	0.197	1121.1	218
303.15 K, w2 = 0.1514	0.142	1131.7	328.1
303.15 K, w2 = 0.2055	0.0995	1143	517.9
303.15 K, w2 = 0.2481	0.0718	1151.2	748.9
308.15 K, w2 = 0	0.48	1091.4	72.42
308.15 K, w2 = 0.0482	0.362	1104.9	103.7
308.15 K, w2 = 0.1008	0.264	1118	154.8
308.15 K, w2 = 0.1514	0.196	1128.6	224.7
308.15 K, w2 = 0.2055	0.142	1139.8	341.2
308.15 K, w2 = 0.2481	0.105	1147.9	477.5
313.15 K, w2 = 0	0.594	1088.4	56.38
313.15 K, w2 = 0.0482	0.459	1101.9	78.37
313.15 K, w2 = 0.1008	0.346	1114.9	113.4
313.15 K, w2 = 0.1514	0.262	1125.5	159.6
313.15 K, w2 = 0.2055	0.194	1136.6	233.9
313.15 K, w2 = 0.2481	0.148	1144.7	318.1
318.15 K, w2 = 0	0.827	1085.3	44.79
318.15 K, w2 = 0.0482	0.571	1098.8	60.64
318.15 K, w2 = 0.1008	0.439	1111.9	85.36
318.15 K, w2 = 0.1514	0.34	1122.4	116.8
318.15 K, w2 = 0.2055	0.259	1133.5	166
318.15 K, w2 = 0.2481	0.202	1141.6	220.1
323.15 K, w2 = 0	0.986	1082.3	36.23
323.15 K, w2 = 0.0482	0.695	1095.8	47.91
323.15 K, w2 = 0.1008	0.546	1108.9	65.78
323.15 K, w2 = 0.1514	0.431	1119.4	87.9
323.15 K, w2 = 0.2055	0.336	1130.4	121.4
323.15 K, w2 = 0.2481	0.267	1138.5	157.4
328.15 K, w2 = 0	–	1079.3	29.78
328.15 K, w2 = 0.0482	–	1092.9	38.55
328.15 K, w2 = 0.1008	–	1105.9	51.75
328.15 K, w2 = 0.1514	–	1116.4	67.64
328.15 K, w2 = 0.2055	–	1127.5	91.14
328.15 K, w2 = 0.2481	–	1135.4	115.9
333.15 K, w2 = 0	–	1076.2	24.82
333.15 K, w2 = 0.0482	–	1089.9	31.51
333.15 K, w2 = 0.1008	–	1102.9	41.48
333.15 K, w2 = 0.1514	–	1113.4	53.16
333.15 K, w2 = 0.2055	–	1124.5	70.05
333.15 K, w2 = 0.2481	–	1132.5	87.5
338.15 K, w2 = 0	–	1073.3	20.95
338.15 K, w2 = 0.0482	–	1086.9	26.14
338.15 K, w2 = 0.1008	–	1099.9	33.78
338.15 K, w2 = 0.1514	–	1110.4	42.55
338.15 K, w2 = 0.2055	–	1121.5	54.95
338.15 K, w2 = 0.2481	–	1129.5	67.57
343.15 K, w2 = 0	–	1070.3	17.88
343.15 K, w2 = 0.0482	–	1083.9	21.96
343.15 K, w2 = 0.1008	–	1096.9	27.91
343.15 K, w2 = 0.1514	–	1107.4	34.61
343.15 K, w2 = 0.2055	–	1118.5	43.91
343.15 K, w2 = 0.2481	–	1126.4	53.21
